Assay results published in patent publication US9822110B2, “Sulfonamide derivative and pharmaceutical use thereof” (EA Pharma Co., Ltd., priority 2013, dated 2017).

Molecular target: T1, MAdCAM-1/α4β7 integrin (Homo sapiens, UniProt P13612+P26010)
T1 construct: a human B-cell line known to express α4β7 integrin; endogenous in cells; host or cells: RPMI-8866 (human B-cell line)
T1 sequence (P13612 34-1032): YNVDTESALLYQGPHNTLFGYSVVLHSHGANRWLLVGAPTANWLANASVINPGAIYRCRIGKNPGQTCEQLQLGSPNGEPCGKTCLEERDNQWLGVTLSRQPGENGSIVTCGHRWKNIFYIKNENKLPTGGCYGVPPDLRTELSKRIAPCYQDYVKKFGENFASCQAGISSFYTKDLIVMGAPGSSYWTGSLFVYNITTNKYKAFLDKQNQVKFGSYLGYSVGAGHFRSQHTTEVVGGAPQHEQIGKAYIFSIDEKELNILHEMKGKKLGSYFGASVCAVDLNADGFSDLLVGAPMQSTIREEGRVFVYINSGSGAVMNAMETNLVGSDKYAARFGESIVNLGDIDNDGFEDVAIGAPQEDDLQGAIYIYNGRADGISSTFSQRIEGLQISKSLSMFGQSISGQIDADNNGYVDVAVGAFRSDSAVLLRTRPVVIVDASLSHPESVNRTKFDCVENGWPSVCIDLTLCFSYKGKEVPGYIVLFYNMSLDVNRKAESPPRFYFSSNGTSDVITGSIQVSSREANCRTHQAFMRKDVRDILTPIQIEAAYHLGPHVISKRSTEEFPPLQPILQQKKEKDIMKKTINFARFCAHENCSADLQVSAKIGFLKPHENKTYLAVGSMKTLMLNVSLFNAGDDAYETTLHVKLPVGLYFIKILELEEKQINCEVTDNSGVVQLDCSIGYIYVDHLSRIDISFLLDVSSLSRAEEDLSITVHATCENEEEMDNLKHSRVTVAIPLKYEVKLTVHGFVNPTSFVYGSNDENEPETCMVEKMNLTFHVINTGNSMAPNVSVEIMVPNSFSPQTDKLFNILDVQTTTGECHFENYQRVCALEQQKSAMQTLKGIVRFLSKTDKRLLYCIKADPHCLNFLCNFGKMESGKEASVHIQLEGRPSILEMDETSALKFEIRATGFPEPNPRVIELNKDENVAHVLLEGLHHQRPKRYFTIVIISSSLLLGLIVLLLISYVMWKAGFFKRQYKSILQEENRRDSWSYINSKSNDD
T1 sequence (P26010 20-798): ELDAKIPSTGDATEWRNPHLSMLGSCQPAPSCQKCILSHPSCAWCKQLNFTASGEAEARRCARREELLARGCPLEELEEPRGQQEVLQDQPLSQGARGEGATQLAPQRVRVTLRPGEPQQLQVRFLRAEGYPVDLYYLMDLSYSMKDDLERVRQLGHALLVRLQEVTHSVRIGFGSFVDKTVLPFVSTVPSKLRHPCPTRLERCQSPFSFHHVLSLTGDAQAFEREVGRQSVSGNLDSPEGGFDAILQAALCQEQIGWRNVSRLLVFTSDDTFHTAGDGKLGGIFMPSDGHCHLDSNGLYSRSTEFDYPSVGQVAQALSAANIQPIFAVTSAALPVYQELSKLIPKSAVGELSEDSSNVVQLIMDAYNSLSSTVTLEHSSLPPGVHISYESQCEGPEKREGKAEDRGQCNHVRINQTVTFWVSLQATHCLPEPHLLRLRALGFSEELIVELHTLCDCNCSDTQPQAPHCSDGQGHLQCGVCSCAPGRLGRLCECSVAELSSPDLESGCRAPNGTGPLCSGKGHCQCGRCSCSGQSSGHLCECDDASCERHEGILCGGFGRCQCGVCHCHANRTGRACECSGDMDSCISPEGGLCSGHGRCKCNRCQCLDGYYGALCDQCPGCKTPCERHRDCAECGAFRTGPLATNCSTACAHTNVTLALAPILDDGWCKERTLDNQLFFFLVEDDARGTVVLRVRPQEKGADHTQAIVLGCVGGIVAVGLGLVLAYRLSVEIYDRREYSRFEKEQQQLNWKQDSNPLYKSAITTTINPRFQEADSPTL
Assay: Evaluation test (1) for MAdCAM-1/α4β7 integrin binding inhibitory activity in the presence of serum (RPMI-8866 cell binding to MAdCAM-1/Fc)
Format: cell-based
Details: RPMI-8866 cells, recombinant mouse MAdCAM-1/Fc, human serum at final concentration of 50%; read-out: α4β7 Serum Activity rank when α4β7 serum was added
Method: The selectivity was determined by dividing the IC50 value in the evaluation test for VCAM-1/α4β1 integrin binding inhibitory activity by the IC50 value in the evaluation test for MAdCAM-1/α4β7 integrin binding inhibitory activity. • (3) Evaluation Test (1) for MAdCAM-1/α4β7 Integrin Binding Inhibitory Activity in the Presence of Serum
The ability of test substances to inhibit the binding of RPMI-8866 cell line, a human B-cell line known to express α4β7 integrin, to MAdCAM-1 was examined.
A 96-well microtiter plate was coated overnight at 4° C. with a recombinant mouse MAdCAM-1/Fc (R&D systems) solution diluted with the buffer A (carbonate buffer, pH 9.6). After washing once with PBS, 150 μL/well of Block Ace (manufactured by Snow Brand Milk Products Co., Ltd.) was added, and it was incubated at room temperature for 2 hours. After removal, it was washed once with PBS.
100 μL of each of test substances and RPMI-8866 cells diluted with a binding buffer solution (DMEM containing 40 mM HEPES, 0.2% BSA, and 4 mM MnCl2) to various concentrations was added to the plate coated with MAdCAM-1/Fc, so that human serum was contained at a final concentration of 50%, and it was incubated at 30° C. for 15 minutes to 60 minutes. After the cells were bound to the wells, unbound cells were removed by washing with PBS. 50 μL/well of the buffer solution C (PBS containing 1.5% Triton X-100) was added to the plate to dissolve the bound RPMI-8866 cells. 30 μL of substrate buffer (Promega, CytoTox 96 Non-Radioactive Cytotoxicity Assay) was added to 30 μL of a cell lysate to allow a reaction for 30 minutes at room temperature in a dark place. 30 μL of stop solution (Promega, CytoTox 96 Non-Radioactive Cytotoxicity Assay) was added thereto to determine the absorbance at 490 nm using a plate reader. The absorbance was obtained herein by detecting the activity of lactate dehydrogenase (LDH) eluted in a supernatant of each well, that is, the absorbance is proportional to the number of RPMI-8866 cells remaining on the plate by being bound to MAdCAM-1. The test was duplicated, and the cell binding rate at various concentrations with the absorbance of the well containing no test substance being taken as 100% was determined, to calculate the concentration IC50 at which 50% of binding was inhibited.

| IC50 | Structure (SMILES) |
| --- | --- |
| > 200 nM | COc1cc2c(=O)n(-c3ccc(C[C@H](NC(=O)c4cc(F)c(NS(=O)(=O)c5ccc(-c6cnc(COC(C)C)nc6)cc5)cc4F)C(=O)O)nc3)c(=O)n(C)c2cn1 [Example 41, (2S)-2-[[2,5-Difluoro-4-[[4-[2-(isopropoxymethyl)pyrimidin-5-yl]phenyl]sulfonylamino]benzoyl]amino]-3-[5-(6-methoxy-1-methyl-2,4-dioxo-pyrido[3,4-d]pyrimidin-3-yl)-2-pyridyl]propanoic acid] |
| 50 to 200 nM | CC(C)OCc1ncc(-c2ccc(S(=O)(=O)Nc3cc(F)c(C(=O)N[C@@H](Cc4ccc(-n5c(=O)ccn(C)c5=O)cc4)C(=O)O)cc3F)cc2)cn1 [Example 42, (2S)-2-[[2,5-Difluoro-4-[[4-[2-(isopropoxymethyl)pyrimidin-5-yl]phenyl]sulfonylamino]benzoyl]amino]-3-[4-(3-methyl-2,6-dioxo-pyrimidin-1-yl)phenyl]propanoic acid] |
| > 200 nM | CC(C)OCc1ncc(-c2ccc(S(=O)(=O)Nc3cc(F)c(C(=O)N[C@@H](Cc4ccc(-n5c(=O)c6cncnc6n(C)c5=O)cn4)C(=O)O)cc3F)cc2)cn1 [Example 43, (2S)-2-[[2,5-Difluoro-4-[[4-[2-(isopropoxymethyl)pyrimidin-5-yl]phenyl]sulfonylamino]benzoyl]amino]-3-[5-(1-methyl-2,4-dioxo-pyrimido[4,5-d]pyrimidin-3-yl)-2-pyridyl]propanoic acid] |
| 50 to 200 nM | CC(C)OCc1ncc(-c2ccc(S(=O)(=O)Nc3cc(F)c(C(=O)N[C@@H](Cc4ccc(-n5c(=O)cc(C(F)(F)F)n(C)c5=O)cc4)C(=O)O)cc3F)cc2)cn1 [Example 44, (2S)-2-[[2,5-Difluoro-4-[[4-[2-(isopropoxymethyl)pyrimidin-5-yl]phenyl]sulfonylamino]benzoyl]amino]-3-[4-[3-methyl-2,6-dioxo-4-(trifluoromethyl)pyrimidin-1-yl]phenyl]propanoic acid] |
| 10 to 50 nM | CCc1ncc(-c2ccc(S(=O)(=O)Nc3c(F)c(F)c(C(=O)N[C@@H](Cc4ccc(-c5c(C)n(C)c(=O)n(C)c5=O)cc4)C(=O)O)c(F)c3F)cc2)cn1 [Example 45, (2S)-2-[[4-[[4-(2-Ethylpyrimidin-5-yl)phenyl]sulfonylamino]-2,3,5,6-tetrafluoro-benzoyl]amino]-3-[4-(1,3,4-trimethyl-2,6-dioxo-pyrimidin-5-yl)phenyl]propanoic acid] |
| > 200 nM | Cc1cc(-c2ccccn2)ccc1S(=O)(=O)Nc1ccc(C(=O)N[C@@H](Cc2ccc(-c3c(C)n(C)c(=O)n(C)c3=O)cc2)C(=O)O)c(F)c1 [Example 46, (2S)-2-[[2-Fluoro-4-[[2-methyl-4-(2-pyridyl)phenyl]sulfonylamino]benzoyl]amino]-3-[4-(1,3,4-trimethyl-2,6-dioxo-pyrimidin-5-yl)phenyl]propanoic acid] |
| 10 to 50 nM | Cc1c(-c2ccc(C[C@H](NC(=O)c3c(F)cc(NS(=O)(=O)c4ccc(C(=O)NC5CC5)cc4)cc3F)C(=O)O)cc2)c(=O)n(C)c(=O)n1C [Example 47] |
| 10 to 50 nM | COCc1ncc(-c2ccc(S(=O)(=O)Nc3cc(F)c(C(=O)N[C@@H](Cc4ccc(-n5c(=O)c6ccncc6n(C)c5=O)nc4)C(=O)O)cc3F)cc2)cn1 [Example 51, (2S)-2-[[2,5-Difluoro-4-[[4-[2-(methoxymethyl)pyrimidin-5-yl]phenyl]sulfonylamino]benzoyl]amino]-3-[6-(1-methyl-2,4-dioxo-pyrido[3,4-d]pyrimidin-3-yl)-3-pyridyl]propanoic acid] |
| 10 to 50 nM | CC(C)OCc1ncc(-c2ccc(S(=O)(=O)Nc3cc(F)c(C(=O)N[C@@H](Cc4ccc(-n5c(=O)c6ccncc6n(C)c5=O)cc4)C(=O)O)cc3F)cc2)cn1 [Example 85] |
| 10 to 50 nM | Cc1c(-c2ccc(C[C@H](NC(=O)c3cc(F)c(NS(=O)(=O)c4ccc(-c5cnc(C6CCOCC6)nc5)cc4)cc3F)C(=O)O)cc2)c(=O)n(C)c(=O)n1C [Example 86, (2S)-2-[[2,5-Difluoro-4-[[4-(2-tetrahydropyran-4-ylpyrimidin-5-yl)phenyl]sulfonylamino]benzoyl]amino]-3-[4-(1,3,4-trimethyl-2,6-dioxopyrimidin-5-yl)phenyl]propanoic acid] |
| > 200 nM | Cc1c(-c2ccc(C[C@H](NC(=O)c3cc(F)c(NS(=O)(=O)c4ccc(C5CCOCC5)cc4)cc3F)C(=O)O)cc2)c(=O)n(C)c(=O)n1C [Example 87, (2S)-2-[[2,5-Difluoro-4-[(4-tetrahydropyran-4-ylphenyl)sulfonylamino]benzoyl]amino]-3-[4-(1,3,4-trimethyl-2,6-dioxopyrimidin-5-yl)phenyl]propanoic acid] |
| 50 to 200 nM | Cc1c(-c2ccc(C[C@H](NC(=O)c3cc(F)c(NS(=O)(=O)c4ccc(-c5cnc(C(C)C)nc5)cc4)cc3F)C(=O)O)cc2)c(=O)n(C)c(=O)n1C [Example 88] |
| > 200 nM | Cc1c(-c2ccc(C[C@H](NC(=O)c3cc(F)c(NS(=O)(=O)c4ccc(-c5cnc(C6CCOCC6)nc5)cc4)cc3F)C(=O)O)nc2)c(=O)n(C)c(=O)n1C [Example 89, (2S)-2-[[2,5-Difluoro-4-[[4-(2-tetrahydropyran-4-ylpyrimidin-5-yl)phenyl]sulfonylamino]benzoyl]amino]-3-[5-(1,3,4-trimethyl-2,6-dioxopyrimidin-5-yl)-2-pyridyl]propanoic acid] |
